Results on six compounds are retold here after patent US20030004162A1, “Use of glycogen phosphorylase inhibitors” (priority 2000, published 2003).

What is called melting point is the temperature, or range, at which the solid turns liquid. Compound `CCN1C(=O)C(C(=O)Nc2cccc(C(=O)Nc3ccccc3)c2)c2cc(C(C)=O)ccc21` (stereo not drawn) [Example 1, 5-Acetyl-1-ethyl-2-oxo-2,3-dihydro-1H-indole-3-carboxylic acid (3-phenylcarbamoyl-phenyl)-amide] displayed a melting point of 173 to 175 °C.

As to `CCN1C(=O)C(C(=O)Nc2cccc(C(=O)Nc3ccc(I)cc3)c2)c2cc(C(C)=O)ccc21` (stereo not drawn) [Example 9, 5-Acetyl-1-ethyl-2-oxo-2,3-dihydro-1H-indole-3-carboxylic acid [3-(4-iodo-phenylcarbamoyl)-phenyl]-amide], the melting point fell in the range of 205 to 210 °C.

Take `CC(=O)c1ccc2c(c1)C(C(=O)Nc1cccc(C(=O)Nc3ccccc3)c1)C(=O)N2C` (stereo not drawn) [Example 12, 5-Acetyl-1-methyl-2-oxo-2,3-dihydro-1H-indole-3-carboxylic acid (3-phenylcarbamoyl-phenyl)-amide]: the melting point fell in the range of 178 to 179 °C.

`CCC(=O)c1ccc2c(c1)C(C(=O)Nc1cccc(C(=O)Nc3ccccc3)c1)C(=O)N2CC` (stereo not drawn) [Example 14, 1-Ethyl-2-oxo-5-propionyl-2,3-dihydro-1H-indole-3-carboxylic acid (3-phenylcarbamoyl-phenyl)-amide] gave a melting point of 179 to 180 °C.

Compound `CC(=O)c1ccc2c(c1)C(C(=O)Nc1cccc(C(=O)Nc3ccccc3)c1)C(=O)N2CC(F)(F)F` (stereo not drawn) [Example 16, 5-Acetyl-2-oxo-1-(2,2,2-trifluoro-ethyl)-2,3-dihydro-1H-indole-3-carboxylic acid (3-phenylcarbamoyl-phenyl)-amide] gave a melting point of 197 to 203 °C.

In turn, `O=C(N[C@@H](Cc1ccccc1)C(=O)N1CCOCC1)c1cc2cc(Cl)sc2[nH]1` [Example 19, 2-Chloro-6H-thieno[2,3-b]pyrrole-5-carboxylic acid [(1S)-benzyl-2-morpholin-4-yl-2-oxo-ethyl]-amide] showed a melting point of 108 to 110 °C.
